Legend:
[1] = system: voltage-activated Na+ currents of sdDRGns; experiment: whole-cell voltage-clamp of voltage activated Na+ currents in sdDRGns; type: cell-based, rat; conditions: 0.1 μg/ml, 0.29 μM (FIG. 1.b)
Experimental: FIG. 1 illustrates the effect of nitenin (0.1 μg/ml) on voltage activated currents recorded from small diameter Dorsal Root Ganglia neurons (sdDRGns) • a) In sdDRGns, voltage-activated outward potassium (K^+) currents were evoked by a depolarizing step to +20 mV (holding potential of −70 mV) preceded by a hyperpolarizing pre-pulse to −120 mV. […] Typical voltage activated K^+ current traces recorded before and in the presence of nitenin (0.1 μg/ml); lower trace corresponding to the current subtraction, fit with a single-exponential function (time constant τ˜150 ms). ii.
For the electrophysiological recordings of the ex vivo material, voltage-clamp recordings were performed on neurons isolated from rat DRGs (and TGs). Recordings were performed from the soma that often contained the proximal fraction of axon, 1 hour after the end of the cell isolation process (includes enzymatic and mechanical treatment).

anesthetized Wistar rats = experiment: in vivo ECG recordings of anesthetized Wistar rats; design: species or system rat; conditions: intravenous 60 μg/Kg
[2] = system: Naïve Wistar control rats; experiment: naive Wistar controls, von Frey filaments; type: in vivo, rat; conditions: I.V. injections
Experimental: […]
(§1) For efficacy studies, nociception was assessed in all animals from all pain models by regular behavioural monitoring, by quantifying the sensitivity to mechanical stimuli with Von Frey filaments, and consequently reflecting hyperalgesia when hypersensitive. […] Intraperitoneal administration was tested in CFA rats (23 days after CFA injection), with 10 times the nitenin quantity administered by I.V. injections. […] Oral administration of nitenin through stomach gavages (endogastric), with 100 times the quantity administered by I.V. injections, was tested in CCI rats (31 days after surgery). […]

[3] = system: slow currents from large diameter DRG neurons; experiment: slow currents of large diameter DRG neurons; type: cell-based, rat; conditions: relative to sdDRGNs
Source text: The K^+ currents affected by the identified compounds, recorded from sdDRGNs (and sdTGNs) by whole-cell voltage-clamp techniques, were object of intensive research by the applicant in the area of pain neurophysiology. The use of rat pain models was fundamental to perform previous target validation, i.e., to determine the K^+ current component differentially expressed in pain conditions. […] The nature of the recorded modulatory effect on the currents was studied by monitoring several biophysical parameters, such as voltage dependencies of activation and inactivation and kinetics. The specificity of the bioactivity was carried out by comparing the pharmacological effect on currents recorded from the sdDRGNs with those in other types of dorsal root ganglia (medium and large diameter DGRs).
Lastly, regarding specificity, it is important to note that the slow currents obtained from large diameter DRG neurons are around 10 times less sensitive to nitenin.

hKv1.6 = biological target: T1, hKv1.6 (Homo sapiens, UniProt P17658); experiment: voltage-clamp of K+ currents in CHO-K1 cells expressing hKv1.6; type: cell-based
T1 construct: expressed in transfected cells; host or cells: CHO-K1
T1 sequence (P17658 whole entry): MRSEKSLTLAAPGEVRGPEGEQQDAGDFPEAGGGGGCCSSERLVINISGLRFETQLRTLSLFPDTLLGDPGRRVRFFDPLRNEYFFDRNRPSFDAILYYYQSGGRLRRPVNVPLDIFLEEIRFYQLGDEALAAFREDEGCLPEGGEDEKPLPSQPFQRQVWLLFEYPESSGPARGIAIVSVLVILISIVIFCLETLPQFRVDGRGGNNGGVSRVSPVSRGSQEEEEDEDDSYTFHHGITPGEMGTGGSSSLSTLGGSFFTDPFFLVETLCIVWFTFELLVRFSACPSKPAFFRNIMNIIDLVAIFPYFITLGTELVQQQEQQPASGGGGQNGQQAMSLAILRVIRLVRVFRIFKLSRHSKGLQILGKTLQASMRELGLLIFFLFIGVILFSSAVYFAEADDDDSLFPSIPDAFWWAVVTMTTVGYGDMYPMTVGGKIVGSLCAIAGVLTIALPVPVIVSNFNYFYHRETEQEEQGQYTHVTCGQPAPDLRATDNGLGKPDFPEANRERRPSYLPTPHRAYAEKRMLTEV
Source text: As measure of Ifast, peak current was used, whereas, as a measure of Islow, the current value was obtained at the end of the command pulse (see FIG. 1). Values are expressed as mean±S.E.M. For Islow, a dual phase relationship can be observed. […] Kv1.3 channel is the most sensitive channel (around 6-fold more sensitive in comparison to the “next most sensitive one”, the Kv1.2) Kv1.2, Kv1.1 and Kv1.6 show similar, intermediate sensitivities to nitenin. In opposition, Kv1.4 is the less sensitive (˜31 times less sensitive).
Additionally, drug sensitivity to different voltage-activated channels was assessed by studying the drug effect on currents recorded from chinese hamster ovary (CHO) cells stably transfected with different human Kv channel subunits (Kv1.1, Kv1.2, Kv1.3, Kv1.4 and Kv1.6).
The higher sensitivity of nitenin to Islow (rather than Ifast) and the nature of the nitenin sensitive current (see nitenin sensitive current in FIG. 1.b) urged to understand which K^+ channel(s) do underline Islow. By considering which Kv channel subunits are known to be expressed in DRG, and the biophysical nature of the nitenin-sensitive current, nitenin was tested on whole-cell currents recorded from CHO cells expressing hKv1.1, hKv1.2, hKv1.3, hKv1.4 and hKv1.6. […] Current inhibition was measured at the end of the 1000 ms pulse.

STZ rats = experiment: diabetic neuropathic pain rat model STZ, von Frey filaments; type: in vivo; conditions: I.V. 1 μg/mL of blood; 60 days after STZ
Experimental: […]
as §1

CIPN rats (paclitaxel) = experiment: chemotherapy-induced peripheral neuropathy rat model CIPN, von Frey filaments; type: in vivo; conditions: I.V.; 42 days after paclitaxel
Experimental: […]
as §1

[4] = system: isolated rat atria and isolated rat ventricles; experiment: ex vivo rat heart preparations; conditions: up to 10 μM

`C/C(=C\C1C/C(=C/CCc2ccoc2)C(=O)O1)CCCc1ccoc1` (stereo not drawn) [nitenin] was tested, and the “effect on voltage activated Na+ currents” value [1] was “absence of effect”, the “effect on voltage activated Na+ currents” value ([1]; listed as Nitenin) was “not being able to induce relevant changes” and the “arrhythmia or pro-arrhythmic phenomena (ECG)” value (anesthetized Wistar rats) was “neither induced arrhythmia or any pro-arrhythmic phenomena”. The “sinus rhythm and heart rate (ECG)” value (anesthetized Wistar rats) was “did not change”, the “sensitivity scores, both paws” value [2] was “never any change in sensitivity scores” and the “lower sensitivity of slow currents of large diameter DRG neurons” value [3] was “around 10 times”. For the same molecule, the “lower sensitivity of hKv1.6 relative to Kv1.3” value (hKv1.6) was roughly 6 ×, the “mechanical sensitivity in the hypersensitive paws” value (STZ rats) was “decrease of mechanical sensitivity” and the “sensitivity to mechanical stimuli, both paws” value (CIPN rats (paclitaxel)) was “intense decrease of sensitivity to mechanical stimuli”. For the same molecule, the sinus heart rate ([4]; ex vivo) was “does not change”, the atrial inotropy ([4]; isolated rat atria) was “does not change” and the “right ventricular (RV) inotropy” value ([4]; isolated rat ventricles) was “does not change”.

— US12336977B2, “Nitenin analogue compounds and their use in the treatment of chronic and acute pain” (SEA4US-BIOTECNOLOGIA E RECURSOS MARINHOS, LDA., priority 2019, dated 2025)
